From BindingDB's records for doi:10.7270/Q2PZ576Z (The Scripps Research Institute Molecular Screening Center, 2007)

Molecular target: Sphingosine 1-phosphate receptor 3 (Homo sapiens, UniProt Q99500)
Assay: S1P3 receptor activation, EC50 – cell-based, NFAT-BLA reporter, dose response (AID 439)
Conditions: not given

Sequence of Sphingosine 1-phosphate receptor 3 (Q99500 whole entry): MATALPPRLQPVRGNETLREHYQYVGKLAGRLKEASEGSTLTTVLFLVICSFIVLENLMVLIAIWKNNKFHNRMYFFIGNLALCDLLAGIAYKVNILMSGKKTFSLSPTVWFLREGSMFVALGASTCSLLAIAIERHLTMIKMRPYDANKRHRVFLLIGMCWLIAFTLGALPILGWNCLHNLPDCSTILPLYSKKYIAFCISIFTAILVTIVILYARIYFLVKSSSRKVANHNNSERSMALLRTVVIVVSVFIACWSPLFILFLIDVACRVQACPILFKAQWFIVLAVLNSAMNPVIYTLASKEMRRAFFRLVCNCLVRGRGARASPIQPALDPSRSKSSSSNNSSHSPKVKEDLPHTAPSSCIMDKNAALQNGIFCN

Going from `CCOc1ccc(-c2nc(-c3ccncc3)no2)cc1OCC` [4-[5-(3,4-diethoxyphenyl)-1,2,4-oxadiazol-3-yl]pyridine] to `CCOC(=O)C1C(=N)OC2=C(C(=O)CCC2)C1c1ccccc1OCC` (stereo unspecified) [2-amino-4-(2-ethoxyphenyl)-5-oxo-4,6,7,8-tetrahydro-1-benzopyran-3-carboxylic acid ethyl ester], the EC50 rises from 2.77 µM to 18.5 µM (6.7-fold).

Compared with `Cc1cc(NC(=O)NC(=O)c2cccc(OC(F)(F)C(F)F)c2)[nH]n1`, `CCOC(=O)c1cc2ccc(OC(=O)c3ccco3)cc2oc1=O` [ethyl 7-(2-furoyloxy)-2-oxo-2H-chromene-3-carboxylate] is lower in EC50: > 45 µM for the first, 7.18 µM for the second. The second is the more potent here.

First: CCOC(=O)N1CCN(C(=O)c2nn(-c3cc(OC)cc(OC)c3)c(=O)c3ccccc23)CC1 [4-[3-(3,5-dimethoxyphenyl)-4-keto-phthalazine-1-carbonyl]piperazine-1-carboxylic acid ethyl ester]
Second: CCCSc1nc(N2CCOCC2)c2c(c1C#N)CCCC2 [1-(4-morpholinyl)-3-(propylthio)-5,6,7,8-tetrahydroisoquinoline-4-carbonitrile]
The EC50 of the first is higher: > 45 µM for the first, 4.34 µM for the second.

Same assay, conditions: inactive by the depositor's call

`CC(Oc1ccccc1Br)C(=O)N1CCc2ccccc21` (stereo unspecified) [1-[2-(2-bromophenoxy)propanoyl]indoline] and `Cc1onc(-c2c(Cl)cccc2Cl)c1C(=O)N1CCc2ccccc21` [[3-(2,6-dichlorophenyl)-5-methyl-1,2-oxazol-4-yl]-(2,3-dihydroindol-1-yl)methanone] are within 1.5-fold of each other in EC50: 25.2 µM for the first, 30.8 µM for the second.

Going from `c1ccc(C(Cc2nc(-c3cccnc3)no2)c2ccccc2)cc1` [5-(2,2-diphenylethyl)-3-(3-pyridinyl)-1,2,4-oxadiazole] to `c1ccc(C(Cc2nc(-c3ccccn3)no2)c2ccccc2)cc1` [5-(2,2-diphenylethyl)-3-(2-pyridinyl)-1,2,4-oxadiazole], the EC50 rises from 13.5 µM to 21.1 µM (1.6-fold). The first is the more potent here.

Going from `Cc1ccc(NC(=O)CC2Nc3ccccc3NC2=O)cc1Cl` (stereo unspecified) [N-(3-chloranyl-4-methyl-phenyl)-2-(3-oxidanylidene-2,4-dihydro-1H-quinoxalin-2-yl)ethanamide] to `CCC(C)c1ccc2oc(-c3ccc(NC(=O)c4nnc[nH]4)cc3)nc2c1` (stereo unspecified) [N-[4-(5-sec-butyl-1,3-benzoxazol-2-yl)phenyl]-1H-1,2,4-triazole-3-carboxamide], the EC50 falls from 80.8 µM to 19.3 µM (4.2-fold). The second is the more potent here.

Compared with `O=c1c2ccccc2nnn1CSc1nnc(C2COc3ccccc3O2)n1-c1ccccc1` (stereo unspecified) [3-[[5-(2,3-dihydro-1,4-benzodioxin-3-yl)-4-phenyl-1,2,4-triazol-3-yl]sulfanylmethyl]-1,2,3-benzotriazin-4-one], `N#CCSc1nnc(-c2ccccc2)c(-c2ccccc2)n1` [2-[(5,6-diphenyl-1,2,4-triazin-3-yl)sulfanyl]acetonitrile] is 1.6-fold higher in EC50: 29.5 µM for the first, 47.4 µM for the second. The first is the more potent here.

First: COc1ccc(CCn2c(C)cc(C(=O)CSc3nnnn3C)c2C)cc1 [1-[1-[2-(4-methoxyphenyl)ethyl]-2,5-dimethyl-3-pyrrolyl]-2-[(1-methyl-5-tetrazolyl)thio]ethanone]
Second: Nc1c(C(=O)NCCc2ccccc2)c2nc3ccccc3nc2n1CCN1CCOCC1 [2-amino-1-(2-morpholin-4-ylethyl)-N-(2-phenylethyl)pyrrolo[3,2-b]quinoxaline-3-carboxamide]
The EC50 of the first is 2-fold lower: 18.6 µM for the first, 37.5 µM for the second. The first is the more potent here.

Compared with `C/C(Cl)=C/Cn1c(N2CCCC2)nc2c1c(=O)n(C)c(=O)n2C` [7-((Z)-3-Chloro-but-2-enyl)-1,3-dimethyl-8-pyrrolidin-1-yl-3,7-dihydro-purine-2,6-dione], `Nc1c(C(=O)NC2CCCC2)c2nc3ccccc3nc2n1CC1CCCO1` (stereo unspecified) [MLS000080255] is 2.6-fold lower in EC50: 38.5 µM for the first, 14.7 µM for the second. The second is the more potent here.

First: c1ccc(-c2nc3nonc3nc2-c2ccccc2)cc1 [5,6-diphenyl-[1,2,5]oxadiazolo[3,4-b]pyrazine]
Second: CCOc1ccc(-c2nc(-c3ccccc3)no2)cc1OCC [5-(3,4-diethoxyphenyl)-3-phenyl-1,2,4-oxadiazole]
The EC50 of the first is 2.2-fold higher: 41.6 µM for the first, 19.2 µM for the second.

`Cc1cc(C)n(-c2nc(NCc3cccnc3)c3c4c(sc3n2)COC(C)(C)C4)n1` [2-(3,5-dimethyl-1-pyrazolyl)-6,6-dimethyl-N-(3-pyridinylmethyl)-5,8-dihydropyrano[4,5]thieno[1,2-c]pyrimidin-4-amine] showed an EC50 of 15.3 µM.
